Values quoted from earlier work in US20110136157A1, “Copper regulation evaluation and therapy” (priority 2005, published 2011).
Like-named read-outs stand apart in the source and are kept apart here.

Assays:
[1] = tested on: Wilson's disease patients; settings: long-term use

SMILES	solubility (alcohol)	solubility (water)	long-term or major side effects [1]
CC(C)(S)[C@@H](N)C(=O)O [Penicillamine, 3-mercapto-D-valine]	slightly soluble in alcohol	freely soluble in water	–
CC(=O)[O-].CC(=O)[O-].[Zn+2] [Zinc acetate]	–	–	has not shown any long-term or major side effects
